In patent US8865748B2, “Compounds and compositions for stabilizing hypoxia inducible factor-2 alpha as a method for treating cancer” (Akebia Therapeutics Inc., priority 2011, dated 2014):

Tests used:
B16F10 melanoma tumors = experiment: Murine melanoma tumor model (B16F10 in C57BL/6 mice); assay type: in vivo
Procedure: Mice were injected with 1×10^5 B16F10 murine melanoma cells murine subcutaneously on the left flank. Once tumors become palpable (approximately 5 days), mice were randomly allocated to receive treatment with either: 20% polyethylene glycol (PEG) in 5% […] (vehicle control for the disclosed HIF-2α stabilizer) and PBS (vehicle control for GM-CSF), 20% PEG and GM-CSF (100 ng per mouse in a 50 μL volume), the disclosed HIF-2α stabilizer (17.5 mg/kg in a 100 μL volume) and PBS, or the disclosed HIF-2α stabilizer and GM-CSF (same doses). The PBS and GM-CSF were administered intratumorally, while the 20% PEG and the disclosed HIF-2α stabilizer were administered intraperitoneally. Mice were treated 3 times per week until tumors reached a size of 20 mm in any dimension (approximately 2.5 weeks), at which point mice were euthanized, in accordance with institutional policy. Tumor diameters were measured 3 times per week with calipers, and tumor volumes were calculated as follows: Tumor volume=0.5×[(large diameter)×(small diameter)^2].
6-8-week-old C57BL/6 mice were injected with 1×10^5 B16F10 murine melanoma cells murine subcutaneously on the left flank. Once tumors become palpable (approximately 5 days), mice were randomly allocated to receive treatment with either: 20% PEG-400 in 5% sucrose (vehicle for disclosed HIF-2α stabilizer) and PBS (vehicle for GM-CSF), 20% PEG-400 and GM-CSF (100 ng per mouse in a 50 μL volume), disclosed HIF-2α stabilizer (17.5 mg/kg mouse weight in a 100 μL volume) and PBS, or the disclosed HIF-2α stabilizer and GM-CSF (same concentrations). The disclosed HIF-2α stabilizer (or the vehicle control) was administered intraperitoneally, while GM-CSF (or the vehicle control) was administered intratumorally. Mice were treated […] 3 times per week until tumors reached a size of 20 mm in any dimension (approximately 2.5 weeks), at which point mice were be euthanized, in accordance with institutional policy. Tumor diameters were measured 3 times per week with calipers, and tumor volumes will be calculated as follows: Tumor volume=0.5×[(large diameter)×(small diameter)^2]. For experiments analyzing the effect of neutralizing sVEGFR-1 in combination with disclosed HIF-2α stabilizer treatment, mice were treated intraperitoneally 3×/week with either disclosed HIF-2α stabilizer or vehicle control, and intratumorally with either 4 μg anti-VEGFR-1 neutralizing antibody (R&D Systems) or 4 μg polyclonal goat IgG isotype control (Santa Cruz Biotechnology) in a 50 μL volume. All protocols were approved by the Ohio State University Animal Care and Use Committee, and mice were treated in accordance with institutional guidelines for animal care.
The ANOVA test was used to compare independent measurements between multiple treatment groups. The data was log-transformed to normalize the variance across groups. P-values were adjusted using the Holm's procedure to conserve the type I error at 0.05 due to the multiple comparisons. For tumor growth data, changes in tumor volume over time were assessed via a longitudinal model. Tumor values were log-transformed, and estimated slopes (changes in tumor volume over time) were calculated with 95% confidence intervals. Estimated differences in tumor volume were calculated by a random-effects regression of the longitudinal data. For all analyses, p≦0.05 was considered statistically significant.
To confirm that the modulation of tumor growth and angiogenesis was due to sVEGFR-1 production in response to the disclosed HIF-2α stabilizer, mice were treated with the disclosed HIF-2α stabilizer in the presence or absence of an sVEGFR-1 neutralizing Ab.
6-8-week-old C57BL/6 mice or SCID mice were injected with 1×10^5 B16F10 murine melanoma cells or 1×10^6 A375 human melanoma cells, respectively, subcutaneously on the left flank. […]

sVEGFR-1 = sVEGFR-1 production by human peripheral blood monocytes (ELISA, real-time PCR); assay type: cell-based; details: GM-CSF stimulation; FIG. 11D
Procedure: (§1) Human peripheral blood mononuclear cells (PBMCs) were isolated from fresh peripheral blood leukocyte source packs (American Red Cross, Columbus Ohio) by density gradient centrifugation over Lymphocyte Separation Medium (Cellgro). Monocytes were purified from total PBMCs by layering over FBS. Monocytes were cultured in endotoxin-free RPMI-1640 supplemented with 1% fetal bovine serum (FBS), 0.1% human serum albumin (HSA), and 10 μg/mL of the endotoxin inhibitor polymyxin B. In some experiments, freshly isolated monocytes were differentiated into macrophages by three-day culture in media containing 10% FBS, 1% PSA (penicillin G sodium, streptomycin sulfate, and amphotericin B), and 20 ng/mL M-CSF. Macrophages were serum-starved for 2 hours prior to stimulation. Monocytes or monocyte-derived macrophages were treated for 24 hours with 10 ng/mL GM-CSF, 10 μM disclosed HIF-2α stabilizer, or an equivalent volume of the vehicle controls (PBS or DMSO, respectively). Cell-free culture supernatants were harvested and analyzed for VEGF or sVEGFR-1 by ELISA (R&D Systems).
Human monocytes were left untreated or were stimulated with 100 ng/mL GM-CSF at normoxia or at 0.5% O2. At various time-points, cells were harvested in Trizol reagent (Invitrogen) and RNA was extracted in chloroform and then purified using the RNeasy Minikit (Qiagen). […] Data were analyzed according to the comparative threshold method and normalized against the β-actin internal control transcript. Results are semi-quantitative and represent the fold difference in transcript levels in a particular sample as compared with levels in untreated cells from the same donor.
Since monocyte production of VEGF was dependent on HIF-1α, the inventors herein determined whether selective stabilization of HIF-1α via inhibition of PHD2 would increase monocyte production of VEGF but not sVEGFR-1. […]

VEGF [1] = experiment: VEGF production by human peripheral blood monocytes (ELISA, real-time PCR); assay type: cell-based; details: FIG. 11C
Procedure: as §1
(§2) Human monocytes were left untreated or were stimulated with 100 ng/mL GM-CSF at normoxia or at 0.5% O2. At various time-points, cells were harvested in Trizol reagent (Invitrogen) and RNA was extracted in chloroform and then purified using the RNeasy Minikit (Qiagen). In murine studies, organs harvested at the time of euthanasia were flash-frozen in liquid nitrogen, pulverized in liquid nitrogen, and then dissolved in Trizol. cDNA was generated from 1 μg of RNA using the Superscript First Strand Synthesis System (Invitrogen) and used for real-time PCR using previously described primers and SYBR Green PCR Master Mix (Applied Biosciences), according to the manufacturer's instructions. Data were analyzed according to the comparative threshold method and normalized against the β-actin internal control transcript. Results are semi-quantitative and represent the fold difference in transcript levels in a particular sample as compared with levels in untreated cells from the same donor.
VEGF protein was undetectable in the supernatants of GM-CSF-stimulated monocytes, due to neutralization of VEGF by sVEGFR-1 (FIG. 11C).
Since monocyte production of VEGF was dependent on HIF-1α, the inventors herein determined whether selective stabilization of HIF-1α via inhibition of PHD2 would increase monocyte production of VEGF but not sVEGFR-1. In order to make such determination, human peripheral blood monocytes were stimulated with GM-CSF in the presence of a selective inhibitor of PHD2 which results in the stabilization of HIF-1α.

VEGF [2] = experiment: VEGF mRNA within B16F10 tumors (real-time PCR); assay type: in vivo, mice; details: FIG. 13B; p=0.490
Procedure: as §2
6-8-week-old C57BL/6 mice were injected with 1×10^5 B16F10 murine melanoma cells murine subcutaneously on the left flank. […] Tumor diameters were measured 3 times per week with calipers, and tumor volumes will be calculated as follows: Tumor volume=0.5×[(large diameter)×(small diameter)^2]. […]

GM-CSF: granulocyte-macrophage colony-stimulating factor
tumor growth (tumor volume) (B16F10 melanoma tumors; FIG. 3, stabilizer 17 mg/kg I.P., GM-CSF 100 ng per mouse I.T., 3 times per week, vs. PBS control): reduction in tumor volume | tumor volume reduction, GM-CSF administered I.T. vs. I.P. (B16F10 melanoma tumors; FIG. 4, stabilizer 17 mg/kg delivered I.P. in all cases, no control group): greater reduction of tumor volume | average tumor volumes vs. vehicle controls (B16F10 melanoma tumors; day 16 of treatment, GM-CSF 100 ng/mouse intratumoral or stabilizer 17.5 mg/kg intraperitoneal, 3x/week, each p<0.001): significantly smaller | monocyte production of sVEGFR-1 (sVEGFR-1): induced | VEGF production, transcript levels by real-time PCR (VEGF [1]; GM-CSF stimulation): increased | VEGF protein in supernatants (VEGF [1]; GM-CSF-stimulated monocytes, ELISA detects free VEGF only): undetectable | levels of intratumoral VEGF over vehicle control-treated mice (VEGF [2]): failed to increase
